Legend:
[1] = system: patients with active noninfectious anterior uveitis; experiment: Phase II randomized, investigator-masked, comparator-controlled trial of NS2 eye drops in anterior uveitis; format: in vivo, human
Source text: Group 2 patients will alternate doses of NS2 and Pred Forte®. All patients will be instructed to maintain at least one hour between any two doses. Patients will be followed for up to 8 weeks and monitored for safety and efficacy at six scheduled visits. Efficacy will be assessed by standard ophthalmic examination procedures and response to treatment will be graded according to established uveitis scales. […] Rescue therapy will consist of therapy dosed at the clinical discretion of the treating physician. Rescued patients will receive a follow-up assessment one week after rescue, and then they will be discontinued from the study. Study drug will be self-administered by the patient (or caregiver). Subjects will be instructed to administer study drug per the treatment arm they are assigned to. Subjects randomized to NS2 or Pred Forte® will begin with one drop in the study eye four (4) times per day. Subjects randomized to the NS2 and Pred Forte® group will be instructed to administer one drop of NS2 four (4) times per day alternating with Pred Forte® two (2) times per day. Pred Forte® will be tapered weekly and continued for up to five (5) weeks as described in Table 1. Based the pre-clinical activity of NS2 in diminishing TH1 cytokines as well as ocular inflammation in a pre-clinical model of uveitis, a Phase II trial of topical ocular NS2 was initiated in patients with active noninfectious anterior uveitis, a rare but serious autoimmune-like ocular disease that can lead to blindness. The design of the anterior uveitis Phase II trial was a randomized, parallel group, investigator-masked, comparator-controlled trial to evaluate the safety and efficacy of NS2 ophthalmic solution in patients with anterior uveitis. The trial assessed signs and symptoms of anterior uveitis including anterior chamber cell counts, which are utilized as the primary endpoints in registration studies of anterior uveitis. The study was conducted at 15 clinical sites in the US. […] Pred Forte® was dosed two (2) times daily and then tapered over a 4 week period. […] Prior to un-masking, one subject in the Pred Forte® group was removed from the ITT population for a history of ovarian cancer within the past 5 years, which met exclusion criteria. […] Patients were followed for 8 weeks and monitored for safety and efficacy at six scheduled visits. Efficacy was assessed by standard ophthalmic examination procedures including slit lamp examination and response to treatment was graded according to established uveitis scales. The visit schedule included a screening randomization visit, a day 4 telephone follow-up visit, and clinic visits at week 1, 2, 4, and 8. […] Rescued patients were followed through the week 8 end of study visit.

[2] = 9-month dog study with QID (OU) topical dosing; format: in vivo
Procedure: (§1) The proposed proof of concept study will use the 0.5% dose level of NS2. This dose was selected based on the Phase 1 clinical study results under IND 104,497 and a 9-month dog study with QID (OU) dosing at 0.5%, 0.25%, and 0.1% (w/v). […] Based on the safety profile of the 9-month dog study where 0.5% NS2 was administered QID topically and the 7 day Phase 1 clinical study, a maximum treatment duration of 6-weeks was proposed.

in vivo = conditions: primates
Procedure: To allow for continuous exposure, NS2 0.5% will be administered at a dose of 4 times per day in Group 1 and Group 2. Aldehydes at concentrations of 10 μM are cytotoxic in cell culture (Maeda et al., 2012, Nat Chem Biol. 8(2):170-8). […] In primates, a single dose of 0.5% NS2 results in anterior eye tissue concentrations that range from 17.6 μM just after dosing to 1.2 μM three hours post dosing.

[3] = system: TH1 and TH2 inflammatory cytokines, IL-10; conditions: systemically administered; cited from earlier work
[4] = system: patients with allergic conjunctivitis; experiment: Phase II clinical trial of topical ocular NS2 in allergic conjunctivitis; format: in vivo, human; conditions: after a single eye drop
Source text: Based on the proposed role of aldehydes in mediating inflammation, in addition to the pre-clinical activity of NS2 in reducing IL-5 and other TH2 cytokines, a Phase II clinical trial of a single dose of topical ocular NS2 was initiated in patients with allergic conjunctivitis, and positive results were obtained from that trial in February 2016. The trial design and data from that trial have been reported previously. […] The positive clinical effects of NS2 continued […].

ocular inflammation = conditions: cited from earlier work
[5] = Phase 1 clinical study, 7 day QID topical dosing; format: in vivo, human
Procedure: as §1

CC(C)(O)c1nc2ccc(Cl)cc2cc1N [NS2]
frequency of ocular stinging and burning ([1]; NS2 treated groups): increased frequency
effects on anterior chamber cell counts ([1]; anterior uveitis population): clinically meaningful effects
tolerability ([1]; anterior uveitis population, 0.5% drops 4 times daily, 6 weeks): generally well tolerated
rescue medication required, proportion of patients ([1]; during the study): 20%
safety concerns (ocular exam scores, intra-ocular pressure, corneal thickness, visual acuity) ([1]; during the study): no safety concerns
subjects withdrawn for an adverse event of stinging ([1]; in vivo): One
ACC improvement of at least 1 grade, proportion of patients with successful response ([1]; time point not given): 53%
reducing inflammatory cell count in the anterior chamber of the eye versus standard of care corticosteroid ([1]; topical ocular): statistically indistinguishable from standard of care corticosteroid administration
grade 0 ACC (anterior chamber cell count) treatment response, proportion of patients ([1]; week 2 study visit, mITT population): 33%
sustained grade 0 ACC treatment response, proportion of patients ([1]; week 8 study visit, mITT population): 40%
macroscopic or microscopic evaluations ([2]; 9-month, QID (OU) at 0.5%, 0.25%, 0.1% (w/v)): no abnormal findings
tolerability ([2]; dog, in vivo): well tolerated
anterior eye tissue concentration (in vivo): 17.6 µM
concentration at 3 h (in vivo): 1200 nM
IL-10 (anti-inflammatory cytokine) [3]: up-regulating
levels of TH1 and TH2 inflammatory cytokines [3]: significantly lowered
ocular itching and tearing [4]: significantly reduced
activity versus topical ocular corticosteroid administration (ocular inflammation): compared favorably
tolerability ([5]; 0.5% NS2 group, 7 day QID dosing): well tolerated
concentration at 7 day ([5]; human, plasma, topical, 0.5% NS2, 7 day QID dosing, detection limit, each subject, read-out: plasma levels of NS2): < 5 ng/mL

Source: US11129823B2 (Aldeyra Therapeutics, Inc., priority 2016, dated 2021)
